From ChEMBL document CHEMBL3045532, “Synthesis and evaluation of novel prodrugs of naproxen” (Med Chem Res, 2011)

Key:
Rattus norvegicus [1] = test: Anti-inflammatory activity in Rattus norvegicus Wistar (rat) assessed as inhibition of carrageenan-induced edema volume at 66.2 mg/kg, po measured after 90 min; format: functional; conditions: 1.5 h
Rattus norvegicus [2] = test: Anti-inflammatory activity in Rattus norvegicus Wistar (rat) assessed as inhibition of carrageenan-induced edema volume at 66.2 mg/kg, po measured after 60 min; format: functional; conditions: 1 h
Rattus norvegicus [3] = test: Anti-inflammatory activity in Rattus norvegicus Wistar (rat) assessed as inhibition of carrageenan-induced edema volume at 66.2 mg/kg, po measured after 120 min; format: functional; conditions: 2 h
Rattus norvegicus [4] = test: Anti-inflammatory activity in Rattus norvegicus Wistar (rat) assessed as inhibition of carrageenan-induced edema volume at 66.2 mg/kg, po measured after 30 min; format: functional; conditions: 0.5 h
Mus musculus [5] = test: Analgesic activity in Mus musculus (mouse) assessed as inhibition of acetic acid-induced writhing at 66.2 mg/kg, po pretreated 1 hr before acetic acid challenge; format: functional
Rattus norvegicus [6] = test: Anti-inflammatory activity in Rattus norvegicus Wistar (rat) assessed as inhibition of carrageenan-induced edema volume at 67.6 mg/kg, po measured after 90 min; format: functional; conditions: 1.5 h
Rattus norvegicus [7] = test: Anti-inflammatory activity in Rattus norvegicus Wistar (rat) assessed as inhibition of carrageenan-induced edema volume at 67.6 mg/kg, po measured after 60 min; format: functional; conditions: 1 h
Rattus norvegicus [8] = test: Anti-inflammatory activity in Rattus norvegicus Wistar (rat) assessed as inhibition of carrageenan-induced edema volume at 67.6 mg/kg, po measured after 120 min; format: functional; conditions: 2 h
Rattus norvegicus [9] = test: Anti-inflammatory activity in Rattus norvegicus Wistar (rat) assessed as inhibition of carrageenan-induced edema volume at 67.6 mg/kg, po measured after 30 min; format: functional; conditions: 0.5 h
Mus musculus [10] = test: Analgesic activity in Mus musculus (mouse) assessed as inhibition of acetic acid-induced writhing at 67.6 mg/kg, po pretreated 1 hr before acetic acid challenge; format: functional
Rattus norvegicus [11] = test: Anti-inflammatory activity in Rattus norvegicus Wistar (rat) assessed as inhibition of carrageenan-induced edema volume at 67.8 mg/kg, po measured after 90 min; format: functional; conditions: 1.5 h
Rattus norvegicus [12] = test: Anti-inflammatory activity in Rattus norvegicus Wistar (rat) assessed as inhibition of carrageenan-induced edema volume at 67.8 mg/kg, po measured after 60 min; format: functional; conditions: 1 h
Rattus norvegicus [13] = test: Anti-inflammatory activity in Rattus norvegicus Wistar (rat) assessed as inhibition of carrageenan-induced edema volume at 67.8 mg/kg, po measured after 120 min; format: functional; conditions: 2 h
Rattus norvegicus [14] = test: Anti-inflammatory activity in Rattus norvegicus Wistar (rat) assessed as inhibition of carrageenan-induced edema volume at 67.8 mg/kg, po measured after 30 min; format: functional; conditions: 0.5 h
Mus musculus [15] = test: Analgesic activity in Mus musculus (mouse) assessed as inhibition of acetic acid-induced writhing at 67.8 mg/kg, po pretreated 1 hr before acetic acid challenge; format: functional
Rattus norvegicus [16] = test: Anti-inflammatory activity in Rattus norvegicus Wistar (rat) assessed as inhibition of carrageenan-induced edema volume at 69.6 mg/kg, po measured after 60 min; format: functional; conditions: 1 h
Rattus norvegicus [17] = test: Anti-inflammatory activity in Rattus norvegicus Wistar (rat) assessed as inhibition of carrageenan-induced edema volume at 69.6 mg/kg, po measured after 90 min; format: functional; conditions: 1.5 h
Rattus norvegicus [18] = test: Anti-inflammatory activity in Rattus norvegicus Wistar (rat) assessed as inhibition of carrageenan-induced edema volume at 69.6 mg/kg, po measured after 120 min; format: functional; conditions: 2 h
Rattus norvegicus [19] = test: Anti-inflammatory activity in Rattus norvegicus Wistar (rat) assessed as inhibition of carrageenan-induced edema volume at 69.6 mg/kg, po measured after 30 min; format: functional; conditions: 0.5 h
Mus musculus [20] = test: Analgesic activity in Mus musculus (mouse) assessed as inhibition of acetic acid-induced writhing at 69.6 mg/kg, po pretreated 1 hr before acetic acid challenge; format: functional
Rattus norvegicus [21] = test: Anti-inflammatory activity in Rattus norvegicus Wistar (rat) assessed as inhibition of carrageenan-induced edema volume at 71.9 mg/kg, po measured after 90 min; format: functional; conditions: 1.5 h
Rattus norvegicus [22] = test: Anti-inflammatory activity in Rattus norvegicus Wistar (rat) assessed as inhibition of carrageenan-induced edema volume at 71.9 mg/kg, po measured after 60 min; format: functional; conditions: 1 h
Rattus norvegicus [23] = test: Anti-inflammatory activity in Rattus norvegicus Wistar (rat) assessed as inhibition of carrageenan-induced edema volume at 71.9 mg/kg, po measured after 120 min; format: functional; conditions: 2 h
Rattus norvegicus [24] = test: Anti-inflammatory activity in Rattus norvegicus Wistar (rat) assessed as inhibition of carrageenan-induced edema volume at 71.9 mg/kg, po measured after 30 min; format: functional; conditions: 0.5 h
Mus musculus [25] = test: Analgesic activity in Mus musculus (mouse) assessed as inhibition of acetic acid-induced writhing at 71.9 mg/kg, po pretreated 1 hr before acetic acid challenge; format: functional
[26] = Prodrug conversion in phosphate buffer assessed as half-life for hydrolysis at pH 7.4; format: physicochemical
[27] = Prodrug conversion in acetate buffer assessed as half-life for hydrolysis at pH 4; format: physicochemical
[28] = Prodrug conversion in acetate buffer assessed as half-life for hydrolysis at pH 5; format: physicochemical
[29] = Prodrug conversion in acetate buffer assessed as half-life for hydrolysis at pH 3; format: physicochemical
Rattus norvegicus [30] = test: Anti-inflammatory activity in Rattus norvegicus Wistar (rat) assessed as inhibition of carrageenan-induced edema volume at 69.4 mg/kg, po measured after 90 min; format: functional; conditions: 1.5 h
Rattus norvegicus [31] = test: Anti-inflammatory activity in Rattus norvegicus Wistar (rat) assessed as inhibition of carrageenan-induced edema volume at 69.4 mg/kg, po measured after 60 min; format: functional; conditions: 1 h
Rattus norvegicus [32] = test: Anti-inflammatory activity in Rattus norvegicus Wistar (rat) assessed as inhibition of carrageenan-induced edema volume at 69.4 mg/kg, po measured after 120 min; format: functional; conditions: 2 h
Rattus norvegicus [33] = test: Anti-inflammatory activity in Rattus norvegicus Wistar (rat) assessed as inhibition of carrageenan-induced edema volume at 69.4 mg/kg, po measured after 30 min; format: functional; conditions: 0.5 h
Mus musculus [34] = test: Analgesic activity in Mus musculus (mouse) assessed as inhibition of acetic acid-induced writhing at 69.4 mg/kg, po pretreated 1 hr before acetic acid challenge; format: functional

## COc1ccc2cc(C(C)C(=O)OCC(OC(C)=O)C(OC(C)=O)C(OC(C)=O)C(/C=N/[C@H](C(=O)O)[C@@H](C)O)OC(C)=O)ccc2c1 (stereo partly drawn)
Rattus norvegicus [1]
  inhibition in vivo at 66.2 mg/kg: 39%
Rattus norvegicus [2]
  inhibition in vivo at 66.2 mg/kg: 24%
Rattus norvegicus [3]
  inhibition in vivo at 66.2 mg/kg: 58%
Rattus norvegicus [4]
  inhibition in vivo at 66.2 mg/kg: 18%
Mus musculus [5]
  inhibition in vivo at 66.2 mg/kg: 60.4%

## COc1ccc2cc(C(C)C(=O)OCC(OC(C)=O)C(OC(C)=O)C(OC(C)=O)C(/C=N/[C@@H](CC(=O)O)C(=O)O)OC(C)=O)ccc2c1 (stereo partly drawn)
Rattus norvegicus [6]
  inhibition in vivo at 67.6 mg/kg: 28%
Rattus norvegicus [7]
  inhibition in vivo at 67.6 mg/kg: 1%
Rattus norvegicus [8]
  inhibition in vivo at 67.6 mg/kg: 45%
Rattus norvegicus [9]
  inhibition in vivo at 67.6 mg/kg: 20%
Mus musculus [10]
  inhibition in vivo at 67.6 mg/kg: 75.1%

## COc1ccc2cc(C(C)C(=O)OCC(OC(C)=O)C(OC(C)=O)C(OC(C)=O)C(/C=N/[C@@H](Cc3ccccc3)C(=O)O)OC(C)=O)ccc2c1 (stereo partly drawn)
Rattus norvegicus [11]
  inhibition in vivo at 67.8 mg/kg: 47%
Rattus norvegicus [12]
  inhibition in vivo at 67.8 mg/kg: 13%
Rattus norvegicus [13]
  inhibition in vivo at 67.8 mg/kg: 69%
Rattus norvegicus [14]
  inhibition in vivo at 67.8 mg/kg: 22%
Mus musculus [15]
  inhibition in vivo at 67.8 mg/kg: 91.2%

## COc1ccc2cc(C(C)C(=O)OCC(OC(C)=O)C(OC(C)=O)C(OC(C)=O)C(/C=N/[C@@H](Cc3ccc(O)c(O)c3)C(=O)O)OC(C)=O)ccc2c1 (stereo partly drawn)
Rattus norvegicus [16]
  inhibition in vivo at 69.6 mg/kg: 41%
Rattus norvegicus [17]
  inhibition in vivo at 69.6 mg/kg: 50%
Rattus norvegicus [18]
  inhibition in vivo at 69.6 mg/kg: 73%
Rattus norvegicus [19]
  inhibition in vivo at 69.6 mg/kg: 44%
Mus musculus [20]
  inhibition in vivo at 69.6 mg/kg: 92.3%

## COc1ccc2cc(C(C)C(=O)OCC(OC(C)=O)C(OC(C)=O)C(OC(C)=O)C(/C=N/[C@@H](Cc3c[nH]c4ccccc34)C(=O)O)OC(C)=O)ccc2c1 (stereo partly drawn)
Rattus norvegicus [21]
  inhibition in vivo at 71.9 mg/kg: 36%
Rattus norvegicus [22]
  inhibition in vivo at 71.9 mg/kg: 16%
Rattus norvegicus [23]
  inhibition in vivo at 71.9 mg/kg: 70%
Rattus norvegicus [24]
  inhibition in vivo at 71.9 mg/kg: 18%
Mus musculus [25]
  inhibition in vivo at 71.9 mg/kg: 73.7%
[26]
  t1/2: 18 h
[27]
  t1/2: 115 h
[28]
  t1/2: 57 h
[29]
  t1/2: 88 h

## COc1ccc2cc(C(C)C(=O)OCC(OC(C)=O)C(OC(C)=O)C(OC(C)=O)C(/C=N/[C@@H](Cc3ccc(O)cc3)C(=O)O)OC(C)=O)ccc2c1 (stereo partly drawn)
Rattus norvegicus [30]
  inhibition in vivo at 69.4 mg/kg: 47%
Rattus norvegicus [31]
  inhibition in vivo at 69.4 mg/kg: 25%
Rattus norvegicus [32]
  inhibition in vivo at 69.4 mg/kg: 67%
Rattus norvegicus [33]
  inhibition in vivo at 69.4 mg/kg: 60%
Mus musculus [34]
  inhibition in vivo at 69.4 mg/kg: 82%
[26]
  t1/2: 18 h
[27]
  t1/2: 67 h
[28]
  t1/2: 50 h
[29]
  t1/2: 22 h
